Experimental data reported in patent US20260250318A1, “COMPOSITIONS AND METHODS FOR CROSSING THE BLOOD BRAIN BARRIER” (VOYAGER THERAPEUTICS, INC., priority 2022, published 2026).

What was measured:
Conditions in all cases: synthetic library passage 3, intravenous, relative to wild-type AAV9
brain [1] = test: NGS fold enrichment of synthetic library (passage 3) in C57Bl/6 mice, first cross-species screen; type: in vivo
In short: (§1)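 Fold enrichment versus wild-type AAV9 was derived by NGS of RT-PCR-amplified RNA from nervous tissue, collected e.g. 28 days after IV dosing […]. The library (passage 3) was given to two NHPs aged 2-4 years and to 6-8-week BALB/c and C57Bl/6 mice (n=3 each).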

brain [2] = test: NGS fold enrichment of synthetic library (passage 3) in BALB/c mice, first cross-species screen; type: in vivo
In short: as §1

[3] = system: brain, spinal cord, and DRG of the NHPs; test: NGS fold enrichment of synthetic library (passage 3) in NHPs, first cross-species screen; type: in vivo, cynomolgus macaques (Macaca fascicularis)
In short: as §1

[4] = RNA from brain of C57Bl/6 mice, NGS
[5] = RNA from brain of BALB/c mice, NGS
[6] = RNA from spinal cord of NHPs, NGS

Sequence | Fold enrichment over AAV9 in the brain of Mice (C57Bl/6) (brain [1]; RNA NGS, brain of C57Bl/6 mice) [fold] | Fold enrichment over AAV9 in the brain of Mice (BALB/c) (brain [2]; RNA NGS, brain of BALB/c mice) [fold] | Fold enrichment over AAV9 in the brain of NHPs ([3]; RNA NGS, brain of NHPs) [fold] | Fold enrichment over AAV9 in the spinal cord of NHPs ([3]; RNA NGS, spinal cord of NHPs) [fold] | Fold enrichment over AAV9 in the brain of Mice (C57Bl/6) (brain [1]; [4]) [fold] | Fold enrichment over AAV9 in the brain of Mice (BALB/c) (brain [2]; [5]) [fold] | Fold enrichment over AAV9 in the brain of NHPs ([3]; RNA from brain of NHPs, NGS) [fold] | Fold enrichment over AAV9 in the spinal cord of NHPs [3, 6] [fold]
GSGSHHASRQNQQT | 3.073 | 0.584 | 1.712 | 0.451 |  |  |  | 
GSGSHRDVSQNQQT | 0.626 | 0.550 | 2.843 | 4.022 |  |  |  | 
GSGSKQNALQNQQT |  |  |  |  | 0.941 | 0.594 | 1.216 | 2.010
GSGSLRDFDQNQQT | 0.586 | 0.272 | 2.120 | 6.846 |  |  |  | 
GSGSNMRLSQNQQT |  |  |  |  | 0.962 | 0.730 | 1.363 | 0.588
GSGSPHARMQNQQT | 7.795 | 4.164 | 56.138 | 22.690 |  |  |  | 
GSGSPHPSRQNQQT | 1.869 | 0.975 | 3.017 | 1.993 |  |  |  | 
GSGSPHVKIQNQQT | 2.173 | 2.227 | 16.854 | 9.068 |  |  |  | 
GSGSPHVKSQNQQT | 8.069 | 15.861 | 37.551 | 13.649 |  |  |  | 
GSGSPHVRMQNQQT | 9.121 | 10.076 | 11.574 | 6.764 |  |  |  | 
GSGSPQASRQNQQT |  |  |  |  | 0.923 | 0.542 | 1.189 | 6.782
GSGSPRDSIQNQQT | 0.171 | 0.446 | 1.981 | 4.914 |  |  |  | 
GSGSPRQLSQNQQT | 0.520 | 0.273 | 1.621 | 0.873 |  |  |  | 
GSGSQHSKAQNQQT |  |  |  |  | 0.638 | 0.916 | 1.168 | 0.312
GSGSQLMSLQNQQT | 0.563 | 0.172 | 2.065 | 3.559 |  |  |  | 
GSGSSSMSFQNQQT |  |  |  |  | 0.466 | 0.095 | 1.279 | 0.540

Sequence | Fold enrichment over AAV9 in the brain of Mice (C57Bl/6) (brain [1]; RNA NGS, brain of C57Bl/6 mice) [fold] | Fold enrichment over AAV9 in the brain of Mice (BALB/c) (brain [2]; RNA NGS, brain of BALB/c mice) [fold] | Fold enrichment over AAV9 in the brain of NHPs ([3]; RNA NGS, brain of NHPs) [fold] | Fold enrichment over AAV9 in the spinal cord of NHPs ([3]; RNA NGS, spinal cord of NHPs) [fold] | Fold enrichment over AAV9 in the brain of Mice (C57Bl/6) (brain [1]; [4]) [fold] | Fold enrichment over AAV9 in the brain of Mice (BALB/c) (brain [2]; [5]) [fold] | Fold enrichment over AAV9 in the brain of NHPs ([3]; RNA from brain of NHPs, NGS) [fold] | Fold enrichment over AAV9 in the spinal cord of NHPs [3, 6] [fold]
GSGSSSRPYQNQQT | 0.962 | 0.496 | 1.934 | 3.823 |  |  |  | 
GSGSTHSKAQNQQT |  |  |  |  | 0.921 | 0.801 | 1.410 | 0.515
GSGSVGFIGQNQQT |  |  |  |  | 0.689 | 0.445 | 1.227 | 8.261
GSGSVSQLGQNQQT | 0.596 | 0.375 | 3.184 | 2.307 |  |  |  | 
GSGTHLVSLQNQQT |  |  |  |  | 0.715 | 1.167 | 1.392 | 0.000
GSGTHNSAIQNQQT | 0.762 | 0.574 | 1.469 | 0.570 |  |  |  | 
GSGTHYDNRQNQQT | 0.612 | 0.486 | 1.054 | 0.072 |  |  |  | 
GSGTLYPQSQNQQT | 0.324 | 0.160 | 2.761 | 5.558 |  |  |  | 
GSGTQIPSQQNQQT | 0.470 | 0.151 | 3.112 | 1.224 |  |  |  | 
GSGTSGKTGKNQQT |  |  |  |  | 0.358 | 0.676 | 1.333 | 4.033
GSGTVHAATQNQQT | 0.563 | 0.476 | 1.721 | 1.676 |  |  |  | 
GSGVHGVSSQNQQT | 1.504 | 0.951 | 1.781 | 4.519 |  |  |  | 
GSGVMTHVLQNQQT | 0.370 | 0.533 | 2.692 | 0.347 |  |  |  | 
GSGVQHSLPQNQQT | 0.440 | 0.387 | 1.639 | 0.764 |  |  |  | 
GSGVSARMVQNQQT |  |  |  |  | 0.870 | 0.697 | 1.299 | 0.624
